The source of these data is article PMC8747069, “Sesquiterpene Lactones with Dual Inhibitory Activity against the Trypanosoma brucei Pteridine Reductase 1 and Dihydrofolate Reductase” (Molecules, 2021).

The structures appear in SMILES notation. Like-named read-outs stand apart in the source and are kept apart here.

In experiment [1] the target is T1, TbPTR1 (Trypanosoma brucei brucei, UniProt O76290).
T1 sequence (O76290 1-268): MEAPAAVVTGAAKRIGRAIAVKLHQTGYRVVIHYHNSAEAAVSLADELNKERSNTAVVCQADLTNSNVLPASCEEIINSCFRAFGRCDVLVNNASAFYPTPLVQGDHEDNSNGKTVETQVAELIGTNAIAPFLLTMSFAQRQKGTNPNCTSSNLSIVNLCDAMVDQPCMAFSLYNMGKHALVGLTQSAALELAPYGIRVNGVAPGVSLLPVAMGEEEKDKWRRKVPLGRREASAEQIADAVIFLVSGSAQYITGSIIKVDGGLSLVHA
The experiment in a line: Spectrophotometric inhibition assay with recombinant TbPTR1. The experiment is classed as biochemical. As to conditions: for inhibition at 100 µM: read-out: TbPTR1 Inhibition at 100 µM (%); for EC50: EC50 reported because complete inhibition not reached (solubility issues), read-out: TbPTR1 EC50 (footnote a in IC50 column). As for the experimental part: The concentration and the activity of TbPTR1, as well as the saturating conditions of its substrate and co-substrate were determined by monitoring the oxidation of the co-substrate NADPH to NADP^+ via UV/Vis spectroscopy (Hitachi U-2900, Tokyo, Japan). […] The experiments were carried out as triplicates using buffer A (50 mM Tris/HCl (pH 7.6), 250 mM NaCl).
The concentration of TbPTR1 was 3.23 mg/mL. Its specific activity was calculated to be 0.03 U/mg. All experiments were carried out using the saturating concentrations of folic acid (8 µM) and NADPH (150 µM). The diagrams for the determination of the saturating conditions are depicted in the Supplementary Materials Figure S15.
(§1) All measurements were carried out as duplicates and compared with a reference containing no inhibitor. The reference measurements were used to determine the full catalytic activity of the respective enzyme (100%), and the relative catalytic activity of all following measurements including inhibitors was calculated accordingly.
(§2) The compounds that were able to inhibit the activity of TbPTR1 or TbDHFR ≥ 50% in the single concentration assays were further investigated by the determination of their half maximal inhibitory concentration (IC50), including at least five inhibitor concentrations. If a complete inhibition of the enzyme could not be achieved experimentally due to the given assay conditions, the half maximal effective concentration (EC50) was determined instead. All measurements were carried out as triplicates against a reference containing no inhibitor at saturating conditions (Section 4.8.). The documented enzyme activity was analysed by nonlinear regression using GraphPad Prism 8 (GraphPad Software Inc., La Jolla, CA, USA).

For experiment [2], the target named is TbDHFR (Trypanosoma brucei brucei, UniProt Q27783). The experiment in a line: Spectrophotometric inhibition assay with recombinant TbDHFR. Particulars: for inhibition at 50 µM / TbDHFR Inhibition at 50 µM (%): NADPH 150 µM, DHF 50 µM. It counts as biochemical. As for the experimental part: Kinetic analysis of TbDHFR was performed according to 4.5. All measurements were carried out as triplicates using buffer B (50 mM Tris/HCl (pH 7.6), 250 mM NaCl, 10 mM BME).
Sequence of TbDHFR (Q27783 28-238 limits assumed): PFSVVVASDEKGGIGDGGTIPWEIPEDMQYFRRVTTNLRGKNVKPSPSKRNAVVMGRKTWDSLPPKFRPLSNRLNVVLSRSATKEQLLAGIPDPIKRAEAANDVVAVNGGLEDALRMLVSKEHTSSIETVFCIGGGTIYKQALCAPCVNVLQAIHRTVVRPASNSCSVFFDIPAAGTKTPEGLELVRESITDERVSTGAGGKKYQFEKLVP
The concentration of TbDHFR was 0.04 mg/mL with a specific activity of 38.1 U/mg. All experiments were carried out using the saturating concentrations of dihydrofolate (DHF, 50 µM) and NADPH (150 µM). The diagrams for the determination of the saturating conditions are depicted in the Supplementary Materials Figure S16.
as §1, §2

Experiment [3] has as its system T. brucei rhodesiense. Particulars: in vitro growth inhibition; cited from earlier work.
For experiment [4], the system named is T. brucei. Details: method as in PMID 22331812. As to conditions: acute mouse model; cited from earlier work.
Where [5] appears, read: 100 µM compound, NADPH 150 µM, folic acid 8 µM.
Where [6] appears, read: 50 µM compound, read-out: TbDHFR Inhibition at 50 µM (%).

With `C=C1C(=O)O[C@@H]2/C=C(/CO)C3=CC(=O)[C@@](C)(C[C@@H](OC(=O)/C(C)=C\C)[C@@H]12)O3` [Compound 4], the figures for the IC50 in experiment [1] and in experiment [3] were 30.5 µM and 0.1 µM, respectively. Moreover, the inhibition (as a rule, the relative decrease from the control value, in per cent) at 100 µM in experiment [1] (setting [5]) worked out at 79.9%. In experiment [2] (setting [6]), the inhibition at 50 µM was 34.9%.
On to `C=C1C(=O)OC2C=C(C)C(OC(=O)C(O)C(C)C)CC=C(C)CC(OC(=O)C(=CCO)CO)C12` (stereo not shown) [Compound 6], for which the inhibition at 100 µM in experiment [1] (setting [5]) was 33.1%. The “TbDHFR Inhibition at 50 µM (%)” value in experiment [2] (50 µM compound) is on record as “n.i”. For the same molecule, the IC50 (as a rule, the concentration needed to halve the response being measured) in experiment [3] was 0.8 µM.
For `C=C1C(=O)O[C@@H]2/C=C(\CO)CC/C=C(\C)C[C@H](OC(=O)C(=C)[C@H](O)CO)[C@@H]12` [Compound 1, cnicin], the inhibition at 100 µM in experiment [1] (setting [5]) stood at 63.9%. In addition, the EC50 (usually the concentration at which the effect is half-maximal) in experiment [1] is 21.2 µM. The inhibition at 50 µM in experiment [2] (setting [6]) amounted to 15.2%. In addition, the IC50 in experiment [3] was 0.4 µM.
Take `C=C1C(=O)OC2C=C(C)C(O)CC=C(C)CC(OC(=O)C(=CCOC(=O)C(O)C(C)C)CO)C12` (stereo not shown) [Compound 9]: the inhibition at 100 µM in experiment [1] (setting [5]) came to 28.5%. The inhibition at 50 µM in experiment [2] (setting [6]) came to 95.9%. Besides, the IC50 in experiment [3] is 2.6 µM.
With `C=C1C(=O)OC2C=C(C)C(OC(C)=O)CC=C(C)CC(OC(=O)C(=CCO)CO)C12` (stereo not shown) [Compound 5, (Z)-eucannabinolide], in experiment [1] (setting [5]), the inhibition at 100 µM turned out to be 58.1%. Further, the EC50 in experiment [1] worked out at 31.5 µM. Further, in experiment [2] (50 µM compound), the “TbDHFR Inhibition at 50 µM (%)” value is “No TbDHFR inhibition could be detected and n.i”. For the same molecule, the IC50 in experiment [3] was 1.7 µM.
Regarding `C=C1C(=O)O[C@H]2[C@H]1[C@H](OC(=O)/C(=C/COC(=O)C(O)C(C)C)CO)C[C@]1(C)[C@@H]2[C@H](C)C(=O)C[C@H]1O` (stereo partly shown) [Compound 8], the inhibition at 100 µM in experiment [1] (setting [5]) stood at 14.2%. Further, in experiment [2] (setting [6]), the inhibition at 50 µM was 40.7%. For the same molecule, the IC50 in experiment [3] is 2.7 µM.
For the molecule `C=C(CO)C(=O)O[C@H]1CC(=C)[C@@H]2C[C@H](O)C(=C)[C@@H]2[C@H]2OC(=O)C(=C)[C@@H]21` [Compound 2, cynaropicrin], the figures for the IC50 in experiment [1], in experiment [2] and in experiment [3] were 12.4 µM, 7.1 µM and 0.3 µM, respectively. In addition, in experiment [1], the inhibition at 100 µM turned out to be 92.1%. Besides, the “in vivo activity against the parasite” value in experiment [4] is given as “in vivo activity against the parasite”.
Consider `C=C1C(=O)OC2C=C(C)C(O)CC=C(C)CC(OC(=O)C(=CCOC(=O)C(O)C(C)CC)CO)C12` (stereo not shown) [Compound 10], for which the inhibition at 100 µM in experiment [1] (setting [5]) was determined as 26.7%. In addition, in experiment [2] (setting [6]), the inhibition at 50 µM amounted to 20.1%. Besides, in experiment [3], the IC50 was 4 µM.
For the molecule `C=C1C(=O)OC2C1CC(OC(=O)C(C)C(C)O)C(C)=CCCC1(C)OC21` (stereo not shown) [Compound 3], the inhibition at 100 µM in experiment [1] (setting [5]) came out at 73.1%. Further, the IC50 in experiment [1] (saturating conditions, nonlinear regression, read-out: TbPTR1 IC50) is 40.5 µM; in experiment [2] (saturating conditions, nonlinear regression, read-out: TbDHFR IC50) it was 13.3 µM; in experiment [3], 1.3 µM. Also, in experiment [2] (setting [6]), the inhibition at 50 µM was over 50%.
Turning to `C=C1C(=O)O[C@@H]2/C=C(\C)C[C@H](O)/C=C(\C)C[C@@H](OC(=O)/C(=C\C)COC(C)=O)[C@@H]12` [Compound 7], the inhibition at 100 µM in experiment [1] was 25.6%. In experiment [2] (read-out: TbDHFR Inhibition at 50 µM (%), 50 µM compound), the inhibition at 50 µM is 48.7%. For the same molecule, the IC50 in experiment [3] was 1.6 µM.
